US20150087598A1, “TREATING MUC1-EXPRESSING CANCERS WITH HELICASE INHIBITORS” (DANA-FARBER CANCER INSTITUTE, INC., priority 2012, published 2015)
Read-outs that look alike come from different tables or passages of the source.

Tests used:
CYP2C9 = CYP2C9 (Homo sapiens, UniProt P11712); details: background statement; cited from earlier work
MUC1-C [1] = test: Immunoblot of MUC1-C in growth factor-stimulated MCF-10A cells; type: cell-based, Human; details: for HRG-induced increase in MUC1-C abundance: MCF-10A cells + HRG, indicated concentrations; for EGF- and HRG-induced MUC1-C translation: growth factor stimulation (summary in discussion)
Procedure: (§1) Human MCF-10A mammary epithelial cells were grown in mammary epithelial growth medium (MEGM, Lonza). Human MCF-7 and MDA-MB-468 breast cancer cells were cultured in Dulbecco's modified Eagle's medium with 10% heat-inactivated fetal bovine serum (FBS), 100 U/ml penicillin, 100 μg/ml streptomycin and 2 mM L-glutamine. Human BT-549 cells were maintained in RPMI-1640 medium (ATCC) with 10% FBS and 0.023 IU/ml insulin. Cells were treated with EGF (Sigma), heregulin beta 1 (HRG; Neomarkers), cycloheximide (CHX, Calbiochem), U0126 (Calbiochem), LY294002 (Caymam Chemical Company), BEZ-235 (Selleckchem) and rapamycin Cell Signaling Technology). In certain experiments, MCF-10A cells were serum-starved overnight, and inhibitors were added 2.5 h prior to EGF or HRG treatment.
(§2) Lysates from subconfluent cells were immunoblotted with anti-MUC1-C(AbS; Neomarkers), anti-β-actin (Sigma), anti-p-AKT, anti-AKT, anti-p-ERK1/2, anti-ERK1/2, anti-p-S6K1, anti-S6K1, anti-PCDC4, anti-eIF4E, eIF4A (Cell Signaling Technology) and anti-EGFR (Santa Cruz Technology) Immune complexes were detected with horseradish peroxidase-conjugated secondary antibodies and enhanced chemiluminescence (Amersham Biosciences). Intensity of certain signals was determined by densitometric scanning.

[2] = cited from earlier work
[3] = system: mitogen-activated protein kinase kinase (MEK); details: background statement; cited from earlier work
eIF4A RNA helicase = details: literature; cited from earlier work
β-actin = β-actin abundance in growth factor-stimulated MCF-10A cells; type: cell-based, Human
Procedure: as §2

cancer cells [4] = details: literature; cited from earlier work
PDCD4 = test: Immunoblot of PDCD4 in MCF-10A cells; type: cell-based, Human; details: 100 nM silvestrol
Procedure: as §1, §2

MUC1-C [5] = test: Immunoblot of MUC1-C in MCF-7 breast cancer cells; type: cell-based, Human; details: MCF-7 cells; for MUC1-C abundance: 100 nM
Procedure: as §1, §2

cancer cells [6] = details: literature, preclinical studies, cited from earlier work
MUC1-C [7] = test: Immunoblot of MUC1-C in MDA-MB-468 breast cancer cells; type: cell-based, Human; details: MDA-MB-468 cells, 10 and 100 nM
Procedure: as §1, §2

cyclin D1, MYC and MCL1 = details: literature; cited from earlier work
MCF-10A cells = test: EGF-stimulated MCF-10A cell growth, viable cell number by trypan blue exclusion; type: cell-based, Human; details: 100 nM, 24 h with EGF, reseeded, counted at 48 h
From the text: FIGS. 6A-D. MUC1-C translation is inhibited by CR-1-31-B in MCF-10A cells. (FIG. 6A) Structures of the indicated compounds.

MUC1-C [8] = test: Immunoblot of MUC1-C in BT-549 breast cancer cells; type: cell-based, Human; details: BT-549 cells, 100 nM, data not shown
Procedure: as §1, §2

MUC1 gene promoter = test: MUC1 promoter luciferase assay in MCF-10A cells; type: cell-based, Human; details: pMUC1-Luc, EGF 100 ng/ml 5 h
Procedure: Control pGL3 or pGL3-MUC1-promoter constructs were transfected with the Renilla plasmid into cells in the presence of Lipofectamine. At 24 h after transfection, cells were serum-starved overnight, and then treated with EGF (100 ng/ml) for 5 h. Luciferase reporter activity was measured using the Promega Dual Glo kit.

MUC1 mRNA = MUC1 mRNA by qRT-PCR in MCF-10A cells; type: cell-based, Human; details: EGF stimulation
Procedure: Total RNA was isolated from cells using an RNeasy Mini kit (Qiagen). cDNAs were synthesized with 0.3-1 μg RNA using the first-strand cDNA synthesis kit (Invitrogen). The SYBR green qPCR assay kit (Applied Biosystems) was used with 5 μl of 20-fold diluted cDNA from each sample, and the samples were amplified with the ABI Prism 7300 machine (Applied Biosystems).

[9] = MCF-10A cells + EGF, CHX 10 ng/ml, U0126 10 μM, LY294002 50 μM, BEZ235 250 or 500 nM, rapamycin 100 nM, silvestrol, CR-1-31-B, CR-1-30-B indicated concentrations 24 h

Chain of CYP2C9 (P11712 whole entry): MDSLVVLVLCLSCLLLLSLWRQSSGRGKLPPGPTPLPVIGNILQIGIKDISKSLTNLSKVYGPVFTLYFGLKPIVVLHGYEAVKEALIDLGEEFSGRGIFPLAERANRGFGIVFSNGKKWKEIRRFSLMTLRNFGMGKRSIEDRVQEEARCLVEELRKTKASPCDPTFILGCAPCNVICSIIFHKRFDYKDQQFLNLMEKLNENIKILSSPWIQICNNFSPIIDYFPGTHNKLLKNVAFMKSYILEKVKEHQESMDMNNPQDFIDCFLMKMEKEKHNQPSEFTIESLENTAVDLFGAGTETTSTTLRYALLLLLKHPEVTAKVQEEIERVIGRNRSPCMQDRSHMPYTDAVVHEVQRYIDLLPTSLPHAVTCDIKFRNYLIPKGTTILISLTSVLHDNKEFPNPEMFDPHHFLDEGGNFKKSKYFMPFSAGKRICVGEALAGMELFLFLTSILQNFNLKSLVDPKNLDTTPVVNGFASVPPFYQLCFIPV

O=c1cc(-c2ccc(O)cc2)oc2cc(O)cc(O)c12 [Apigenin, 4′,5,7-trihydroxyflavone]
inhibition of CYP2C9 (CYP2C9): potent inhibitor

Cn1c(=O)n(-c2ccc(C(C)(C)C#N)cc2)c2c3cc(-c4cnc5ccccc5c4)ccc3ncc21 [BEZ235]
EGF-induced increase in MUC1-C abundance (MUC1-C [1]; [9]): blocked

O=c1c(O)c(-c2ccc(O)cc2)oc2cc(O)cc(O)c12 [Kaempferol]
solubility in water [2]: slightly soluble

COc1cccc(-c2cc(=O)c3ccccc3o2)c1N [PD98059, 2-(2′-amino-3′-methoxyphenyl)-oxanaphthalen-4-one]
inhibition of MEK [3]: potent inhibitor

N#CC(=C(/N)Sc1ccccc1N)/C(C#N)=C(\N)Sc1ccccc1N [U0126]
EGF-induced increase in MUC1-C abundance (MUC1-C [1]): not ERK1/2, blocked

C[C@@H]1C[C@@H]([C@H](O)CC2CC(=O)NC(=O)C2)C(=O)[C@@H](C)C1 [cycloheximide]
EGF-induced increase in MUC1-C abundance (MUC1-C [1]; [9]): blocked

COC(=O)[C@H]1[C@@H](O)[C@@]2(O)c3c(OC)cc(O[C@@H]4O[C@@H]([C@H](O)CO)CO[C@H]4OC)cc3O[C@@]2(c2ccc(OC)cc2)[C@@H]1c1ccccc1 [silvestrol]
activity against eIF4A RNA helicase (eIF4A RNA helicase): potent inhibitor
abundance of β-actin (β-actin): little effect
activity against cancer cells growing in vitro (cancer cells [4]): active
PDCD4 abundance (PDCD4): marked decrease
MUC1-C levels (MUC1-C [5]; 10 nM): limited effect
MUC1-C abundance (MUC1-C [5]): more pronounced decrease
EGF-induced increase in MUC1-C abundance (MUC1-C [1]; [9]): blocked
HRG-induced increase in MUC1-C abundance (MUC1-C [1]; 24 h): dose-dependent inhibitory effects
EGF- and HRG-induced MUC1-C translation (MUC1-C [1]; MCF-10A cells): substantially blocked
anti-tumor activity in animal models (cancer cells [6]): promising anti-tumor activity
toxicity in animal models (cancer cells [6]): little toxicity
anti-tumor activity in animal models (cancer cells [6]; listed as Silvestrol): active
MUC1-C abundance (MUC1-C [7]): clearly detectable
production of cyclin D1, MYC and MCL1 (cyclin D1, MYC and MCL1): decreases

CR-1-31-B
growth of MCF-10A cells in response to EGF (MCF-10A cells): attenuated
MUC1-C expression (MUC1-C [8]): decreases
MUC1-C abundance (MUC1-C [5]): downregulation
EGF-induced increase in MUC1-C abundance (MUC1-C [1]; [9]): dose-dependent decrease
HRG-induced increase in MUC1-C abundance (MUC1-C [1]; 24 h): blocked
EGF- and HRG-induced MUC1-C translation (MUC1-C [1]; MCF-10A cells): similarly blocks
MUC1-C abundance (MUC1-C [7]): decreases

EGF: growth factor (Sigma) stimulating EGFR
effect of growth factor stimulation on MUC1-C levels (MUC1-C [5]; EGF 100 ng/ml, HRG data not shown): no apparent effect
increase in MUC1-C expression compared to baseline levels (MUC1-C [1]; MCF-10A cells, growth factor stimulation (EGF 100 ng/ml, HRG 10 ng/ml), 24 h): 65 fold
activation of the MUC1 gene promoter (MUC1 gene promoter): no significant effect
MUC1 mRNA levels (MUC1 mRNA): no apparent effect
